Target: T1, HIV-integrase (recombinant integrase) (Human immunodeficiency virus type 1 group M subtype B, UniProt P12497)
T1 construct: Recombinant integrase (0.26 ng) was incubated with the beads
Test: HIV-Integrase Inhibition Activity (SPA bead strand-transfer assay)
Type: biochemical
Settings: biotin labeled substrate DNA on SPA beads, P33 labeled target DNA, read-out: Activity (IC50 against HIV-integrase)
Protocol: HIV-Integrase Inhibition Activity. To evaluate in-vitro activity against HIV-integrase, 5 pmole of biotin labeled substrate DNA was bound to 100 μg of Streptavidin coated PVT SPA beads (Amersham Pharmacia Biotech). Recombinant integrase (0.26 ng) was incubated with the beads for 90 min at 37° C. Unbound enzyme was removed by washing the complex followed by addition of inhibitors and 0.1 fmol of P33 labeled target DNA. The reaction was stopped by adding EDTA to a final concentration of 10 mM. Samples were counted in TopCountNXT (Packard) and the CPM was used as a measure of integration. The reaction condition was as described in A. Engelman and R. Craigie, J. Virol. 69, 5908-5911 (1995). The sequences of substrate and target DNA were described in Nucleic Acid Research 22, 1121-1122 (1994). Activity equal to A refers to a compound having IC50=0.002 to 0.10 μM while B and C denote compounds having IC50=0.1 to 1.0 μM and IC50≧1.0 μM respectively.

| SMILES | IC50 [nM] |
| --- | --- |
| Cc1ncn(-c2cc(F)ccc2CNC(=O)c2nc3n(c(=O)c2O)CCS(=O)(=O)C3(C)C)n1 [Example 6, Pyrimido[2,1-c][1,4]thiazine-2-carboxamide, N-[[4-fluoro-2-(3-methyl-1H-1,2,4-triazol-1-yl)phenyl]methyl]-4,6,7,9-tetrahydro-3-hydroxy-9,9-dimethyl-4-oxo-, 8,8-dioxide] | 2 to 100 |
| Cc1ncn(-c2cc(F)ccc2CNC(=O)c2nc3n(c(=O)c2O)CCS(=O)(=O)C32CCCC2)n1 [Example 14, Spiro[cyclopentane-1,9′(4′H)-pyrimido[2,1-c][1,4]thiazine]-2′-carboxamide, N-[[4-fluoro-2-(3-methyl-1H-1,2,4-triazol-1-yl)phenyl]methyl]-6′,7′-dihydro-3′-hydroxy-4′-oxo-, 8′,8′-dioxide] | 2 to 100 |
| Cc1ncnn1-c1cc(F)ccc1CNC(=O)c1nc2n(c(=O)c1O)CCS(=O)(=O)C21CCOCC1 [Example 18, Spiro[4H-pyran-4,9′(4′H)-pyrimido[2,1-c][1,4]thiazine]-2′-carboxamide, N-[[4-fluoro-2-(5-methyl-1H-1,2,4-triazol-1-yl)phenyl]methyl]-2,3,5,6,6′,7′-hexahydro-3′-hydroxy-4′-oxo-, 8′,8′-dioxide] | 2 to 100 |
| O=C(NCc1ccc(F)cc1)c1nc2n(c(=O)c1O)CCS(=O)(=O)C21CCOCC1 [Example 16, Spiro[4H-pyran-4,9′(4′H)-pyrimido[2,1-c][1,4]thiazine]-2′-carboxamide, N-[(4-fluorophenyl)methyl]-2,3,5,6,6′,7′-hexahydro-3′-hydroxy-4′-oxo-, 8′,8′-dioxide] | 2 to 100 |
| O=C(NCc1ccc(F)cc1)c1nc2n(c(=O)c1O)CCS(=O)(=O)C2 [Example 2, Pyrimido[2,1-c][1,4]thiazine-2-carboxamide, N-[(4-fluorophenyl)methyl]-4,6,7,9-tetrahydro-3-hydroxy-4-oxo-, 8,8-dioxide] | 100 to 1000 |
| O=C(NCc1ccc(F)cc1)c1nc2n(c(=O)c1O)CCCS(=O)(=O)C21CCCC1 [Example 25, Spiro[cyclopentane-1,10′(4′H)-[6H]pyrimido[2,1-c][1,4]thiazepine]-2′-carboxamide, N-[(4-fluorophenyl)methyl]-7′,8′-dihydro-3′-hydroxy-4′-oxo-, 9′,9′-dioxide] | 2 to 100 |
| O=C(NCc1ccc(F)cc1)c1nc2n(c(=O)c1O)CCCSC2 [Example 19, N-(4-Fluorobenzyl)-3-hydroxy-4-oxo-6,7,8,10-tetrahydro-4H-pyrimido[2,1-c][1,4]thiazepine-2-carboxamide] | 2 to 100 |
| Cc1ncnn1-c1cc(F)ccc1CNC(=O)c1nc2n(c(=O)c1O)CCCS(=O)(=O)C21CCOCC1 [Example 29, Spiro[4H-pyran-4,10′(4′H)-[6H]pyrimido[2,1-c][1,4]thiazepine]-2′-carboxamide, N-[[4-fluoro-2-(5-methyl-1H-1,2,4-triazol-1-yl)phenyl]methyl]-2,3,5,6,7′,8′-hexahydro-3′-hydroxy-4′-oxo-, 9′,9′-dioxide] | 2 to 100 |
| Cc1cc(CNC(=O)c2nc3n(c(=O)c2O)CCCS(=O)(=O)C32CCOCC2)ccc1F [Example 27, Spiro[4H-pyran-4,10′(4′H)-[6H]pyrimido[2,1-c][1,4]thiazepine]-2′-carboxamide, N-[(4-fluoro-3-methylphenyl)methyl]-2,3,5,6,7′,8′-hexahydro-3′-hydroxy-4′-oxo-, 9′,9′-dioxide] | 2 to 100 |
| O=C(NCc1ccc(F)cc1)c1nc2n(c(=O)c1O)CCS(=O)(=O)C21CC1 [Example 8, Spiro[cyclopropane-1,9′(4′H)-pyrimido[2,1-c][1,4]thiazine]-2′-carboxamide, N-[(4-fluorophenyl)methyl]-6′,7′-dihydro-3′-hydroxy-4′-oxo-, 8′,8′-dioxide] | 2 to 100 |
| CC1(C)c2nc(C(=O)NCc3ccc(F)cc3)c(O)c(=O)n2CCS1(=O)=O [Example 4, Pyrimido[2,1-c][1,4]thiazine-2-carboxamide, N-[(4-fluorophenyl)methyl]-4,6,7,9-tetrahydro-3-hydroxy-9,9-dimethyl-4-oxo-, 8,8-dioxide] | 2 to 100 |
| CC1c2nc(C(=O)NCc3ccc(F)cc3)c(O)c(=O)n2CCCS1(=O)=O (centres unmarked) [Example 22, 6H-Pyrimido[2,1-c][1,4]thiazepine-2-carboxamide, N-[(4-fluorophenyl)methyl]-4,7,8,10-tetrahydro-3-hydroxy-10-methyl-4-oxo-, 9,9-dioxide] | 2 to 100 |
| CC1(C)c2nc(C(=O)NCc3ccc(F)cc3-n3cncn3)c(O)c(=O)n2CCS1(=O)=O [Example 5, Pyrimido[2,1-c][1,4]thiazine-2-carboxamide, N-[[4-fluoro-2-(1H-1,2,4-triazol-1-yl)phenyl]methyl]-4,6,7,9-tetrahydro-3-hydroxy-9,9-dimethyl-4-oxo-, 8,8-dioxide] | 2 to 100 |
| O=C(NCc1ccc(F)cc1)c1nc2n(c(=O)c1O)CCCS(=O)(=O)C2 [Example 21, 6H-Pyrimido[2,1-c][1,4]thiazepine-2-carboxamide, N-[(4-fluorophenyl)methyl]-4,7,8,10-tetrahydro-3-hydroxy-4-oxo-, 9,9-dioxide] | 2 to 100 |
| O=C(NCc1ccc(F)cc1-n1cncn1)c1nc2n(c(=O)c1O)CCS(=O)(=O)C21CCCC1 [Example 13, Spiro[cyclopentane-1,9′(4′H)-pyrimido[2,1-c][1,4]thiazine]-2′-carboxamide, N-[[4-fluoro-2-(1H-1,2,4-triazol-1-yl)phenyl]methyl]-6′,7′-dihydro-3′-hydroxy-4′-oxo-, 8′,8′-dioxide] | 2 to 100 |
| Cc1ncnn1-c1cc(F)ccc1CNC(=O)c1nc2n(c(=O)c1O)CCS(=O)(=O)C21CCCC1 [Example 15, Spiro[cyclopentane-1,9′(4′H)-pyrimido[2,1-c][1,4]thiazine]-2′-carboxamide, N-[[4-fluoro-2-(5-methyl-1H-1,2,4-triazol-1-yl)phenyl]methyl]-6′,7′-dihydro-3′-hydroxy-4′-oxo-, 8′,8′-dioxide] | 2 to 100 |
| O=C(NCc1ccc(F)cc1)c1nc2n(c(=O)c1O)CCS(=O)(=O)C21CCCC1 [Example 12, Spiro[cyclopentane-1,9′(4′H)-pyrimido[2,1-c][1,4]thiazine]-2′-carboxamide, N-[(4-fluorophenyl)methyl]-6′,7′-dihydro-3′-hydroxy-4′-oxo-, 8′,8′-dioxide] | 2 to 100 |
| O=C(NCc1ccc(F)cc1)c1nc2n(c(=O)c1O)CCSC2 [Example 1, N-(4-fluorobenzyl)-3-hydroxy-4-oxo-4,6,7,9-tetrahydropyrimido[2,1-c][1,4]thiazine-2-carboxamide] | 2 to 100 |
| O=C(NCc1ccc(F)cc1)c1nc2n(c(=O)c1O)CCCS(=O)(=O)C21CCOCC1 [Example 26, Spiro[4H-pyran-4,10′(4′H)-[6H]pyrimido[2,1-c][1,4]thiazepine]-2′-carboxamide, N-[(4-fluorophenyl)methyl]-2,3,5,6,7′,8′-hexahydro-3′-hydroxy-4′-oxo-, 9′,9′-dioxide] | 2 to 100 |
| O=C(NCc1ccc(F)cc1-n1cncn1)c1nc2n(c(=O)c1O)CCS(=O)(=O)C21CC1 [Example 9, Spiro[cyclopropane-1,9′(4′H)-pyrimido[2,1-c][1,4]thiazine]-2′-carboxamide, N-[[4-fluoro-2-(1H-1,2,4-triazol-1-yl)phenyl]methyl]-6′,7′-dihydro-3′-hydroxy-4′-oxo-, 8′,8′-dioxide] | 2 to 100 |
| Cc1ncnn1-c1cc(F)ccc1CNC(=O)c1nc2n(c(=O)c1O)CCS(=O)(=O)C2(C)C [Example 7, Pyrimido[2,1-c][1,4]thiazine-2-carboxamide, N-[[4-fluoro-2-(5-methyl-1H-1,2,4-triazol-1-yl)phenyl]methyl]-4,6,7,9-tetrahydro-3-hydroxy-9,9-dimethyl-4-oxo-8,8-dioxide] | 2 to 100 |
| CC1c2nc(C(=O)NCc3ccc(F)cc3)c(O)c(=O)n2CCS1(=O)=O (centres unmarked) [Example 3, Pyrimido[2,1-c][1,4]thiazine-2-carboxamide, N-[(4-fluorophenyl)methyl]-4,6,7,9-tetrahydro-3-hydroxy-9-methyl-4-oxo-, 8,8-dioxide] | 2 to 100 |
| Cc1ncn(-c2cc(F)ccc2CNC(=O)c2nc3n(c(=O)c2O)CCS(=O)(=O)C32CC2)n1 [Example 10, Spiro[cyclopropane-1,9′(4′H)-pyrimido[2,1-c][1,4]thiazine]-2′-carboxamide, N-[[4-fluoro-2-(3-methyl-1H-1,2,4-triazol-1-yl)phenyl]methyl]-6′,7′-dihydro-3′-hydroxy-4′-oxo-, 8′,8′-dioxide] | 2 to 100 |
| CC1SCCCn2c1nc(C(=O)NCc1ccc(F)cc1)c(O)c2=O (centres unmarked) [Example 20, N-(4-Fluorobenzyl)-3-hydroxy-10-methyl-4-oxo-6,7,8,10-tetrahydro-4H-pyrimido[2,1-c][1,4]thiazepine-2-carboxamide] | 2 to 100 |
| O=C(NCc1ccc(F)cc1-n1cncn1)c1nc2n(c(=O)c1O)CCCS(=O)(=O)C21CCOCC1 [Example 28, Spiro[4H-pyran-4,10′(4′H)-[6H]pyrimido[2,1-c][1,4]thiazepine]-2′-carboxamide, N-[[4-fluoro-2-(1H-1,2,4-triazol-1-yl)phenyl]methyl]-2,3,5,6,7′,8′-hexahydro-3′-hydroxy-4′-oxo-, 9′,9′-dioxide] | 2 to 100 |
| O=C(NCc1ccc(F)cc1)c1nc2n(c(=O)c1O)CCCS(=O)(=O)C21CC1 [Example 24, Spiro[cyclopropane-1,10′(4′H)-[6H]pyrimido[2,1-c][1,4]thiazepine]-2′-carboxamide, N-[(4-fluorophenyl)methyl]-7′,8′-dihydro-3′-hydroxy-4′-oxo-, 9′,9′-dioxide] | 2 to 100 |
